According to patent US20050153381A1, “Immunocapture of mitochondrial protein complexes” (priority 2002, published 2005):

Key:
[1] = system: human mitochondrial F1/F0 ATPase (Complex V); experiment: ATPase activity of immunocaptured F1/F0 ATPase, 96-well; type: biochemical
Procedure: Solubilization. Samples were thawed and placed in 25 mM HEPES pH 7.5 (to dissociate F1F0/IF1 interactions) or 10 mM […] (Anatrace) pH 6.5 (to retain F1F0/IF1 interactions), containing 0.4% (w/v) […], and the protease inhibitors leupeptin (0.5 μg/ml), pepstatin (0.5 μg/ml) and PMSF (1 mM). Mitochondria were solubilized at 5 mg/ml and whole cells were solubilized at 2×10^7 cells/ml. Samples were mixed well and then kept on ice for 30 minutes with occasional agitation. Insoluble material was then removed by centrifugation at 16,000×g for 20 minutes at 4° C.
Immunocapture. Assays were run in 96-well plates (Falcon Probind™) using 100 μl/well. […] To control for non-specific adsorption of ATPase, a non-specific mouse monoclonal antibody was used as a null capture mAb. Wells were then loaded with solubilized test samples diluted in TBS with 2.5% BSA, incubated for 2 hours at room temperature and then washed 4 times with TBS.
ATPase activity. ATPase reaction buffer (25 mM HEPES pH 7.5 or 10 mM MOPS pH 6.5, with 25 mM KCl, 5 mM MgCl2, 5 mM KCN and 2 mM ATP) was added at 100 μl/well and incubated for 3 hours at 37° C. The reaction was stopped and free Pi generated by ATP hydrolysis was detected essentially as described by Walker et al. (Meth. Enzymol., 260: 163-190, 1995) by addition of 0.5% ammonium molybendate in 0.7 M H2SO4 (42 μl/well) followed by 10% ascorbic acid (4 μl/well). After incubation for 30 minutes at room temperature to allow color development, absorbance was measured at 690 nm.
IF1 Stripping Conditions. IF1 was dissociated from previously immunocaptured IF1/F1F0 complexes by exposure to IF1 stripping buffer (30 mM Tris-sulfate pH 8, 250 mM KCl, 2 mM EDTA, 75 mM sucrose) for 30 minutes at 37° C. (Van Raaij et al., Biochem. 35: 15618-15625, 1996). The wells were then washed with either a pH 7.5 wash buffer (TBS) or a pH 6.5 wash buffer (10 mM MOPS pH 6.5, 150 mM NaCl and 1 mM MgCl2), and ATPase activity measured at either pH 7.5 or pH 6.5 as described above.
IF1 Addition Conditions. Recombinant human IF1 was obtained by PCR-based amplification of the appropriate gene from a human heart CDNA library (Clontech), cloning into pET15b (Novagen), transformation of E. coli and overexpression and purification of the His-tagged protein on a Ni column by standard protocols (Novagen). Isolated protein was diluted in pH 6.5 wash buffer (as described above) containing 1 mM ATP and incubated with previously immunocaptured F1F0. The wells were then washed with pH 6.5 wash buffer and ATPase activity measured at pH 6.5 as described above.

Complex V = target: T1, Complex V (Homo sapiens, UniProt P00846+P05496+P06576+P25705); experiment: Complex V activity dipstick; type: biochemical; details: normal fibroblast Complex V (FIG. 30)
T1 construct: tissue Analytical Biological Services, Inc; host or cells: human heart ventricle mitochondria (A10, A12); MRC5, Rho0-MRC5 and GM00028 fibroblasts (A12); normal and Rho0 human fibroblast mitochondria (A19)
Procedure: Mitochondria (human heart, human fibroblast or bovine heart) were solubilized at 5 mg/ml mitochondrial protein, 1% wt/vol lauryl maltoside, 100 mM NaCl, 25 mM HEPES pH 7.5, and the protease inhibitors pepstatin (0.5 μg/ml), leupeptin (0.5 μg/ml) and PMSF (1 mM). The samples were incubated at 4° C. for 30 minutes and the insoluble material removed by centrifugation at 16,000×g for 20 minutes. Solubilized mitochondria were diluted to the desired concentration in 150 mM NaCl, 50 mM Tris-HCl, pH 7.5 containing 2.5% bovine serum albumin as a blocking and stabilization agent.
After the entire sample wicked up into the nitrocellulose (approximately 15 minutes), the stick was transferred to a second well containing 50 μl of wash buffer (150 mM NaCl, 50 mM Tris-HCl, pH 7.5), which was allowed to wick up the stick (approximately 15 minutes). The absorbent pad was then removed and the entire dipstick incubated in a tube containing 3 ml wash buffer for approximately 15 minutes. The washed dipstick (with the immunocaptured OXPHOS complex of interest) was then transferred to the appropriate enzyme reaction buffer to reveal enzyme activity as described below. […]

In the case of `CC[C@H]1/C=C/C=C/C[C@@H](C)[C@H](O)[C@@](C)(O)C(=O)[C@@H](C)[C@H](O)[C@@H](C)C(=O)[C@@H](C)[C@H](O)[C@@H](C)/C=C/C(=O)O[C@@H]2[C@H](C)[C@H](CC1)O[C@]1(CC[C@H](C)[C@H](C[C@@H](C)O)O1)[C@H]2C` [oligomycin], the “oligomycin sensitivity of F1/F0 ATPase immunocaptured from Rho0 cell mitochondria” value ([1]; Rho0 fibroblasts, 1.5 μg/ml oligomycin (FIG. 8)) is reported as “oligomycin insensitive”, the “oligomycin sensitivity of immunocaptured enzyme” value ([1]; cultured fibroblast extract, 1.5 μg/ml oligomycin (FIG. 7B)) is reported as “more than 90%” and the “inhibition of ATPase activity of immunocaptured human F1/F0 ATPase” value ([1]; human heart mitochondria, 1.5 μg/ml oligomycin (FIG. 5)) is reported as “more than 90%”. The “inhibition of captured F1/F0 ATPase” value ([1]; mAb 12F4AD8AF8 directly adsorbed to the plate) was “could not be inhibited”, the “inhibition of captured F1/F0 ATPase” value ([1]; mAb 12F4AD8AF8 oriented on a layer of goat-anti-mouse IgG) was “completely inhibited” and the “effect on Complex V activity dipstick signal” value (Complex V) was “reduced signal”.
